Results reported in patent US9662323B2, “Compounds having muscarinic receptor antagonist and beta2 adrenergic receptor agonist activity” (CHIESI FARMACEUTICI S.p.A., priority 2015, dated 2017).

What was measured:
Human M3 receptor = target: T1, Human M3 receptor (Homo sapiens, UniProt P20309); assay: M3 Receptor Radioligand Binding Assay; conditions: human M3 receptor membranes, [3H]-N-methyl scopolamine; read-out: M3 binding affinity (Ki class)
T1 construct: purchased Perkin Elmer
Outline: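 Radioligand binding with 0.5% (v/v) final DMSO, incubated 2 h at room temperature with shaking. Membranes were collected on GF/C filters pre-treated with 0.5% polyethyleneimine, washed four times with assay buffer, and counted by scintillation.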

Human β2 adrenoceptor = target: T2, Human β2 adrenoceptor (Homo sapiens, UniProt P07550); assay: β2 Adrenoceptor Radioligand Binding Assay; conditions: human β2 adrenoceptor membranes, 125-I Cyanopindolol; read-out: B2 binding affinity (Ki class)
T2 construct: purchased Perkin Elmer
T2 sequence (P07550 whole entry): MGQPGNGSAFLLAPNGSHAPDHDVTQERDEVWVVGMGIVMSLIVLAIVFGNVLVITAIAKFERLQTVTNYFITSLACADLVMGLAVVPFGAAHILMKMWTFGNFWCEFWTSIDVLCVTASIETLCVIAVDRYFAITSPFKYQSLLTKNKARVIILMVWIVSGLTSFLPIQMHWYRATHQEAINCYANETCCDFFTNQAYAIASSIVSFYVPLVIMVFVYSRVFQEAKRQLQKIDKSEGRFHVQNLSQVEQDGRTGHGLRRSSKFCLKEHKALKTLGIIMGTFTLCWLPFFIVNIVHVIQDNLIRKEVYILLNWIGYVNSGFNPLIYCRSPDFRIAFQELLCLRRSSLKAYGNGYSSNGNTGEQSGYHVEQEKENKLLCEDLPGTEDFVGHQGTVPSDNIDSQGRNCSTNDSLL
Outline: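 Membranes were incubated 1 h at room temperature in 25 mM HEPES, 0.5% BSA, 1 mM EDTA, 0.02% ascorbic acid, pH 7.4, with 0.5% DMSO final. Bound radioligand was collected by GF/C filtration and counted by scintillation. IC50 values from competition curves were converted to Ki by Cheng–Prusoff.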

T1 sequence (P20309 whole entry): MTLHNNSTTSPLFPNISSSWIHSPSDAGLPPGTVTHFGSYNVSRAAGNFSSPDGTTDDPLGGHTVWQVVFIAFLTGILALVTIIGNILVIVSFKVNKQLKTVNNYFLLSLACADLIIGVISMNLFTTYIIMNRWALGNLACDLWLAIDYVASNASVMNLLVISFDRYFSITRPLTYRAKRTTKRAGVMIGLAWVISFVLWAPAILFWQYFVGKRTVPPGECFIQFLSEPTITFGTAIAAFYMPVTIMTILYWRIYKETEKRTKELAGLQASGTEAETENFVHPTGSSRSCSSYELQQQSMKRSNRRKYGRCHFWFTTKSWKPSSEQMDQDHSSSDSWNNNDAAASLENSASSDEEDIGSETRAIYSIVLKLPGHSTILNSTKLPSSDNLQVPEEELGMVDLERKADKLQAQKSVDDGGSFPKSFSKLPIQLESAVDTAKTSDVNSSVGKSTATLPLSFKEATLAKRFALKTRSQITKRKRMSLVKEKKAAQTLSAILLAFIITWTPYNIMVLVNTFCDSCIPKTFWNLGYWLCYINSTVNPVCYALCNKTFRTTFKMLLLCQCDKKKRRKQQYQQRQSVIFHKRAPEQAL

Row | SMILES | Ki (Human M3 receptor) [nM] | Ki (Human β2 adrenoceptor) [nM]
1 | O=C(Cc1ccc(CC(=O)N(CCCNC[C@H](O)c2ccc(O)c3[nH]c(=O)ccc23)Cc2ccccc2)cc1)N1CCC(C(=O)O[C@H]2CN3CCC2CC3)(c2ccccc2)CC1 [Compound 36, (R)-Quinuclidin-3-yl 1-(2-(4-(2-(benzyl(3-(((R)-2-hydroxy-2-(8-hydroxy-2-oxo-1,2-dihydroquinolin-5-yl)ethyl)amino)propyl)amino)-2-oxoethyl)phenyl)acetyl)-4-phenylpiperidine-4-carboxylate] | < 1 | < 1
2 | O=C(Cc1ccc(CC(=O)N(CCCNC[C@H](O)c2ccc(O)c3[nH]c(=O)ccc23)Cc2cccc(C(F)(F)F)c2)cc1)N1CCC(C(=O)O[C@H]2CN3CCC2CC3)(c2ccccc2)CC1 [Compound 37, (R)-Quinuclidin-3-yl 1-(2-(4-(2-((3-(((R)-2-hydroxy-2-(8-hydroxy-2-oxo-1,2-dihydroquinolin-5-yl)ethyl)amino)propyl)(3-(trifluoromethyl)benzyl)amino)-2-oxoethyl)phenyl)acetyl)-4-phenylpiperidine-4-carboxylate] | < 1 | 1 to 10
3 | COc1cccc(CN(CCCNC[C@H](O)c2ccc(O)c3[nH]c(=O)ccc23)C(=O)Cc2ccc(CC(=O)N3CCC(C(=O)O[C@H]4CN5CCC4CC5)(c4ccccc4)CC3)cc2)c1 [Compound 38, (R)-Quinuclidin-3-yl 1-(2-(4-(2-((3-(((R)-2-hydroxy-2-(8-hydroxy-2-oxo-1,2-dihydroquinolin-5-yl)ethyl)amino)propyl)(3-methoxybenzyl)amino)-2-oxoethyl)phenyl)acetyl)-4-phenylpiperidine-4-carboxylate] | < 1 | < 1
4 | O=C(Cc1ccc(CC(=O)N(CCCNC[C@H](O)c2ccc(O)c3[nH]c(=O)ccc23)Cc2cccc(Oc3ccc(Cl)c(Cl)c3)c2)cc1)N1CCC(C(=O)O[C@H]2CN3CCC2CC3)(c2ccccc2)CC1 [Compound 40, (R)-Quinuclidin-3-yl 1-(2-(4-(2-((3-(3,4-dichlorophenoxy)benzyl)(3-(((R)-2-hydroxy-2-(8-hydroxy-2-oxo-1,2-dihydroquinolin-5-yl)ethyl)amino)propyl)amino)-2-oxoethyl)phenyl)acetyl)-4-phenylpiperidine-4-carboxylate] | < 1 | 1 to 10
5 | O=C(Cc1ccc(CC(=O)N(CCCNC[C@H](O)c2ccc(O)c3[nH]c(=O)ccc23)Cc2cccc(OCc3ccccc3)c2)cc1)N1CCC(C(=O)O[C@H]2CN3CCC2CC3)(c2ccccc2)CC1 [Compound 41, (R)-Quinuclidin-3-yl 1-(2-(4-(2-((3-(benzyloxy)benzyl)(3-(((R)-2-hydroxy-2-(8-hydroxy-2-oxo-1,2-dihydroquinolin-5-yl)ethyl)amino)propyl)amino)-2-oxoethyl)phenyl)acetyl)-4-phenylpiperidine-4-carboxylate] | < 1 | 1 to 10
6 | O=C(Cc1ccc(CC(=O)N(CCCNC[C@H](O)c2ccc(O)c3[nH]c(=O)ccc23)Cc2cccc(F)c2)cc1)N1CCC(C(=O)O[C@H]2CN3CCC2CC3)(c2ccccc2)CC1 [Compound 42, (R)-Quinuclidin-3-yl 1-(2-(4-(2-((3-fluorobenzyl)(3-(((R)-2-hydroxy-2-(8-hydroxy-2-oxo-1,2-dihydroquinolin-5-yl)ethyl)amino)propyl)amino)-2-oxoethyl)phenyl)acetyl)-4-phenylpiperidine-4-carboxylate] | < 1 | < 1
7 | O=C(Cc1ccc(CC(=O)N(CCCNC[C@H](O)c2ccc(O)c3[nH]c(=O)ccc23)Cc2ccccc2OCc2ccccc2)cc1)N1CCC(C(=O)O[C@H]2CN3CCC2CC3)(c2ccccc2)CC1 [Compound 43, (R)-Quinuclidin-3-yl 1-(2-(4-(2-((2-(benzyloxy)benzyl)(3-(((R)-2-hydroxy-2-(8-hydroxy-2-oxo-1,2-dihydroquinolin-5-yl)ethyl)amino)propyl)amino)-2-oxoethyl)phenyl)acetyl)-4-phenylpiperidine-4-carboxylate] | < 1 | 1 to 10
8 | O=C(Cc1ccc(CC(=O)N(CCCNC[C@H](O)c2ccc(O)c3[nH]c(=O)ccc23)Cc2ccccc2N2CCOCC2)cc1)N1CCC(C(=O)O[C@H]2CN3CCC2CC3)(c2ccccc2)CC1 [Compound 44, (R)-Quinuclidin-3-yl 1-(2-(4-(2-((3-(((R)-2-hydroxy-2-(8-hydroxy-2-oxo-1,2-dihydroquinolin-5-yl)ethyl)amino)propyl)(2-morpholinobenzyl)amino)-2-oxoethyl)phenyl)acetyl)-4-phenylpiperidine-4-carboxylate] | < 1 | 1 to 10
9 | O=C(Cc1ccc(CC(=O)N(CCCNC[C@H](O)c2ccc(O)c3[nH]c(=O)ccc23)Cc2ccccc2F)cc1)N1CCC(C(=O)O[C@H]2CN3CCC2CC3)(c2ccccc2)CC1 [Compound 45, (R)-Quinuclidin-3-yl 1-(2-(4-(2-((2-fluorobenzyl)(3-(((R)-2-hydroxy-2-(8-hydroxy-2-oxo-1,2-dihydroquinolin-5-yl)ethyl)amino)propyl)amino)-2-oxoethyl)phenyl)acetyl)-4-phenylpiperidine-4-carboxylate] | < 1 | < 1
10 | O=C(Cc1ccc(CC(=O)N2CCC(C(=O)O[C@H]3CN4CCC3CC4)(c3ccccc3)CC2)cc1)NCCCNC[C@H](O)c1ccc(O)c2[nH]c(=O)ccc12 [Compound 46, (R)-Quinuclidin-3-yl 1-(2-(4-(2-((3-(((R)-2-hydroxy-2-(8-hydroxy-2-oxo-1,2-dihydroquinolin-5-yl)ethyl)amino)propyl)amino)-2-oxoethyl)phenyl)acetyl)-4-phenylpiperidine-4-carboxylate] | > 10 | > 10
11 | CN(CCCNC[C@H](O)c1ccc(O)c2[nH]c(=O)ccc12)C(=O)Cc1ccc(CC(=O)N2CCC(C(=O)O[C@H]3CN4CCC3CC4)(c3ccccc3)CC2)cc1 [Compound 47, (R)-Quinuclidin-3-yl 1-(2-(4-(2-((3-(((R)-2-hydroxy-2-(8-hydroxy-2-oxo-1,2-dihydroquinolin-5-yl)ethyl)amino)propyl)(methyl)amino)-2-oxoethyl)phenyl)acetyl)-4-phenylpiperidine-4-carboxylate] | 1 to 10 | 1 to 10
12 | O=C(c1ccc(OCCCCCCNC[C@H](O)c2ccc(O)c3[nH]c(=O)ccc23)cc1)N1CCC(C(=O)O[C@H]2CN3CCC2CC3)(c2ccccc2)CC1 [Compound 49, (R)-Quinuclidin-3-yl 1-(4-((6-(((R)-2-hydroxy-2-(8-hydroxy-2-oxo-1,2-dihydroquinolin-5-yl)ethyl)amino)hexyl)oxy)benzoyl)-4-phenylpiperidine-4-carboxylate] | < 1 | < 1
13 | O=C(c1ccc(OCCCCCCNC[C@H](O)c2ccc(O)c3[nH]c(=O)ccc23)cc1)N1CCC(C(=O)O[C@H]2CN3CCC2CC3)(c2ccc(Br)cc2)CC1 [Compound 50, (R)-Quinuclidin-3-yl 4-(4-bromophenyl)-1-(4-((6-(((R)-2-hydroxy-2-(8-hydroxy-2-oxo-1,2-dihydroquinolin-5-yl)ethyl)amino)hexyl)oxy)benzoyl)piperidine-4-carboxylate] | > 10 | < 1
14 | O=C(c1ccc(OCCCCCCNC[C@H](O)c2ccc(O)c3[nH]c(=O)ccc23)cc1)N1CCC(C(=O)O[C@H]2CN3CCC2CC3)(c2ccc(Cl)cc2)CC1 [Compound 51, (R)-Quinuclidin-3-yl 4-(4-chlorophenyl)-1-(4-((6-(((R)-2-hydroxy-2-(8-hydroxy-2-oxo-1,2-dihydroquinolin-5-yl)ethyl)amino)hexyl)oxy)benzoyl)piperidine-4-carboxylate] | 1 to 10 | < 1
15 | CCN(CCCNC[C@H](O)c1ccc(O)c2[nH]c(=O)ccc12)C(=O)c1ccc(CCC(=O)N2CCC(C(=O)O[C@H]3CN4CCC3CC4)(c3ccccc3)CC2)cc1 [Compound 52, (R)-Quinuclidin-3-yl 1-(3-(4-(ethyl(3-(((R)-2-hydroxy-2-(8-hydroxy-2-oxo-1,2-dihydroquinolin-5-yl)ethyl)amino)propyl)carbamoyl)phenyl)propanoyl)-4-phenylpiperidine-4-carboxylate] | 1 to 10 | < 1
16 | CN(CCCNC[C@H](O)c1ccc(O)c2[nH]c(=O)ccc12)C(=O)c1ccc(CCC(=O)N2CCC(C(=O)O[C@H]3CN4CCC3CC4)(c3ccccc3)CC2)cc1 [Compound 53, (R)-Quinuclidin-3-yl 1-(3-(4-((3-(((R)-2-hydroxy-2-(8-hydroxy-2-oxo-1,2-dihydroquinolin-5-yl)ethyl)amino)propyl)(methyl)carbamoyl)phenyl)propanoyl)-4-phenylpiperidine-4-carboxylate] | 1 to 10 | 1 to 10
17 | O=C(CCc1ccc(C(=O)N(CCCNC[C@H](O)c2ccc(O)c3[nH]c(=O)ccc23)Cc2ccccc2)cc1)N1CCC(C(=O)O[C@H]2CN3CCC2CC3)(c2ccccc2)CC1 [Compound 54, (R)-Quinuclidin-3-yl 1-(3-(4-(benzyl(3-(((R)-2-hydroxy-2-(8-hydroxy-2-oxo-1,2-dihydroquinolin-5-yl)ethyl)amino)propyl)carbamoyl)phenyl)propanoyl)-4-phenylpiperidine-4-carboxylate] | 1 to 10 | 1 to 10
18 | O=C(Cc1ccc(OCc2ccc(CNC[C@H](O)c3ccc(O)c4[nH]c(=O)ccc34)cc2)cc1)N1CCC(C(=O)O[C@H]2CN3CCC2CC3)(c2ccccc2)CC1 [Compound 55, (R)-Quinuclidin-3-yl 1-(2-(4-((4-((((R)-2-hydroxy-2-(8-hydroxy-2-oxo-1,2-dihydroquinolin-5-yl)ethyl)amino)methyl)benzyl)oxy)phenyl)acetyl)-4-phenylpiperidine-4-carboxylate] | < 1 | < 1
